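In this assay, cells in 96-well plates receive the compound at five concentrations for 48 hours. Endpoints are linearly interpolated between the surrounding concentrations. GI50 marks 50% less growth.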 Active and inactive are the calls of the source. Cut-off read from the data, not from the text of the source: active = GI50 up to about 1.1 µM and inactive = higher.
How the values were obtained:
Assay in all cases: growth of human tumour cells (NCI), 48 h
M14 = tested on: M14
NCI-H460 = tested on: NCI-H460
HCT-15 = tested on: HCT-15
SW-620 = tested on: SW-620
K562 = tested on: K562
RPMI-8226 = tested on: RPMI-8226
COLO 205 = tested on: COLO 205
HOP-92 = tested on: HOP-92
MOLT-4 = tested on: MOLT-4
EKVX = tested on: EKVX
SNB-75 = tested on: SNB-75
CCRF-CEM = tested on: CCRF-CEM
SF-539 = tested on: SF-539
OVCAR-5 = tested on: OVCAR-5
SNB-19 = tested on: SNB-19
HCT-116 = tested on: HCT-116
KM12 = tested on: KM12
SK-MEL-5 = tested on: SK-MEL-5
NCI-H522 = tested on: NCI-H522

| Structure (SMILES) | GI50 (M14) | GI50 (NCI-H460) | GI50 (HCT-15) | GI50 (SW-620) | GI50 (K562) | GI50 (RPMI-8226) | GI50 (COLO 205) | GI50 (HOP-92) | GI50 (MOLT-4) | GI50 (EKVX) | GI50 (SNB-75) | GI50 (CCRF-CEM) | GI50 (SF-539) | GI50 (OVCAR-5) | GI50 (SNB-19) | GI50 (HCT-116) | GI50 (KM12) | GI50 (SK-MEL-5) | GI50 (NCI-H522) |
| --- | --- | --- | --- | --- | --- | --- | --- | --- | --- | --- | --- | --- | --- | --- | --- | --- | --- | --- | --- |
| O=C(/C=C/c1ccccc1F)c1ccc([N+](=O)[O-])cc1 | 26.8 µM (inactive) | 30.8 µM (inactive) | 18.2 µM | 26.6 µM (inactive) | 5.77 µM (inactive) | 2 µM (inactive) | 35.2 µM (inactive) | 16.3 µM (inactive) | 2.07 µM (inactive) | 38.5 µM (inactive) | 4.58 µM (inactive) | – | – | – | – | – | – | – | – |
| Cc1cc(C)nc(NS(=O)(=O)c2ccc(Nc3c4ccccc4nc4c(C(=O)N5CCN(CCO)CC5)ccc(Cl)c34)cc2)n1 | 34 µM (inactive) | > 100 µM (inactive) | 52.2 µM | – | 38.5 µM (inactive) | 91.4 µM (inactive) | 63 µM (inactive) | > 100 µM (inactive) | 25.9 µM (inactive) | – | 87.9 µM (inactive) | 25.9 µM (inactive) | > 100 µM (inactive) | > 100 µM (inactive) | > 100 µM (inactive) | 50.9 µM (inactive) | > 100 µM (inactive) | 42.8 µM (inactive) | – |
| COc1ccc(S(=O)(=O)N[C@H](C(=O)O)c2ccccc2)cc1 | > 100 µM (inactive) | > 100 µM (inactive) | > 100 µM | > 100 µM (inactive) | > 100 µM (inactive) | > 100 µM (inactive) | > 100 µM (inactive) | – | > 100 µM (inactive) | > 100 µM (inactive) | > 100 µM (inactive) | > 100 µM (inactive) | > 100 µM (inactive) | > 100 µM (inactive) | > 100 µM (inactive) | > 100 µM (inactive) | > 100 µM (inactive) | > 100 µM (inactive) | > 10 µM (inactive) |
| CC(C)(C)C1CCC2c3c([nH]c4ccccc34)C3C(=O)N(c4ccccc4Cl)C(=O)C3C2C1 (stereo not drawn) | 17.1 µM (inactive) | 3.48 µM (inactive) | 12.1 µM | 7.94 µM (inactive) | 9.79 µM (inactive) | 31.4 µM (inactive) | > 10 µM (inactive) | 0.15 µM (active) | 17.9 µM (inactive) | 6.65 µM (inactive) | – | 15.3 µM (inactive) | > 10 µM (inactive) | > 10 µM (inactive) | 35.8 µM (inactive) | 3.18 µM (inactive) | – | 14.1 µM (inactive) | – |
| N#CCN1C(=O)c2cccc3cc([N+](=O)[O-])cc(c23)C1=O | 37.3 µM (inactive) | 29 µM (inactive) | 28 µM | 36.5 µM (inactive) | 27.5 µM (inactive) | 22.7 µM (inactive) | 35.3 µM (inactive) | 99.1 µM (inactive) | 26.4 µM (inactive) | 74.8 µM (inactive) | 38 µM (inactive) | 24.7 µM (inactive) | 33 µM (inactive) | 31.3 µM (inactive) | 84.9 µM (inactive) | 32.2 µM (inactive) | 32 µM (inactive) | 43.1 µM (inactive) | – |
| N=S(c1ccccc1)c1ccccc1[N+](=O)[O-] (stereo not drawn) | 14.4 µM (inactive) | 28.1 µM (inactive) | 16.6 µM | 16.9 µM (inactive) | 10.4 µM (inactive) | 18.2 µM (inactive) | 19.8 µM (inactive) | – | 25.3 µM (inactive) | 19.8 µM (inactive) | 25.8 µM (inactive) | 11.1 µM (inactive) | 18.5 µM (inactive) | 20.1 µM (inactive) | 18.5 µM (inactive) | 17.8 µM (inactive) | 18.1 µM (inactive) | 15 µM (inactive) | 4.71 µM (inactive) |
| CCOC(=O)C(=O)Nc1ccc(C)cc1C | > 100 µM (inactive) | > 100 µM (inactive) | > 100 µM | > 100 µM (inactive) | > 100 µM (inactive) | > 100 µM (inactive) | > 100 µM (inactive) | > 100 µM (inactive) | > 100 µM (inactive) | > 100 µM (inactive) | – | > 100 µM (inactive) | > 100 µM (inactive) | > 100 µM (inactive) | > 100 µM (inactive) | > 100 µM (inactive) | > 100 µM (inactive) | > 100 µM (inactive) | > 100 µM (inactive) |
| Cc1cc(C)c(-c2noc(-c3ccc(Cl)cc3)c2C2=NCCN2)c(C)c1 | 12.2 µM (inactive) | 13.8 µM (inactive) | 22.2 µM | 32.4 µM (inactive) | 14.8 µM (inactive) | 17.9 µM (inactive) | 16.4 µM (inactive) | – | 16.6 µM (inactive) | 22.9 µM (inactive) | 17.1 µM (inactive) | 20.7 µM (inactive) | 16.8 µM (inactive) | 32.1 µM (inactive) | 28.1 µM (inactive) | 12.1 µM (inactive) | 21.6 µM (inactive) | 11.7 µM (inactive) | > 10 µM (inactive) |
